Results on seven molecules are retold here after ChEMBL document CHEMBL1159363, “New cytotoxic alkaloids from the wood of Vepris punctata from the Madagascar rainforest” (J Nat Prod, 2003).

Structures are written as SMILES. In brackets after ≈: the same amount, converted by molar mass.

In the assay the test system is A2780. In words: Cytotoxicity against human A2780 cells. The class given is functional, cell-based.

By IC50 is commonly meant the midpoint of a concentration-inhibition curve. For `COc1c(OC)c(OC)c2c(OC)c3ccoc3nc2c1OC`, inhibition was half-maximal at 3.4 µg/mL (≈ 10.6 µM) (IC50).

Take `COc1c2cc3c(cc2nc2occc12)OCO3` [MACULINE]: inhibition was half-maximal at 4 µg/mL (≈ 16.4 µM) (IC50).

For `COc1c2c(cc3nc4occc4c(OC)c13)OCO2`, the IC50 was determined as 2.8 µg/mL (≈ 10.2 µM).

The molecule `COc1c2ccoc2nc2c(OC)c3c(cc12)OCO3` [FLINDERSIAMINE] gave an IC50 of 3.3 µg/mL (≈ 12.1 µM).

With `COc1ccc2c(OC)c3ccoc3nc2c1OC` [SKIMMIANINE], the IC50 worked out at 4.2 µg/mL (≈ 16.2 µM).

Take `COc1c2c(c(OC)c3c(OC)c4ccoc4nc13)OCO2`: the IC50 was determined as 3.5 µg/mL (≈ 11.5 µM).

Consider `COc1cc2nc3occc3c(OC)c2cc1OC` [KOKUSAGININE], for which the IC50 came to 3.5 µg/mL (≈ 13.5 µM).
